US20080081284A1, “OPTICAL INFORMATION RECORDING MEDIUM” (FUJIFILM Corporation, priority 2006, published 2008)

Test: Evaluation of light fastness of dye film
Assay type: physicochemical
Settings: residual dye ratio at absorption λmax 48 hours after Xe light irradiation; dye film on glass plate
Experimental: Dye-containing coating liquids equal to those of Examples 1 to 3, and Comparative Examples 1 to 4 were prepared, and each coating liquid was applied to a 1.1-mm-thick glass plate by a spin coating method under conditions of 23° C. and 50% RH while changing the rotation rate within a range of 500 to 1,000 rpm. The glass plate with the dye film was stored for 24 hours under conditions of 23° C. and 50% RH, and then subjected to a light fastness test using a merry-go-round-type light fastness tester (Cell Tester Model III manufactured by Eagle Engineering, equipped with WG320 Filter manufactured by Schott). The absorption spectrum of the dye film was measured using UV-1600PC manufactured by SHIMADZU immediately before the light fastness test and 48 hours after the light fastness test, and the change of the absorbancy at the maximum absorption wavelength was evaluated.

Row | Compound | Light fastness of dye film
1 | Cc1nn2nc(C(C)(C)C)c(/N=N/c3c(C#N)cnn3-c3cc(C(=O)O)cc(C(=O)O)c3)c2n1C [Compound (A-7)] | Excellent (Evaluated as “Excellent” when the residual dye ratio was 85% or more at the absorption λmax 48 hours after the irradiation with an Xe light)
2 | CCCCC(CC)COC(=O)Nc1ccc(-c2nn3nc(C(C)(C)C)c(/N=N/c4c(C#N)cnn4-c4cc(C(=O)O)cc(C(=O)O)c4)c3[nH]2)cc1 (stereo not shown) [Compound (C)] | Fair (evaluated as “Fair” when the ratio was 60% or more and less than 70%)
3 | Cn1nc(C(C)(C)C)c(N=Nc2c(C#N)cnn2-c2cc(C(=O)O)cc(C(=O)O)c2)c1N [Compound (A-1)] | Good (evaluated as “Good” when the ratio was 70% or more and less than 85%)
4 | Cc1n[nH]c2c(/N=N/c3c(C#N)c(C(C)(C)C)nn3C)c(C(C)(C)C)nn12 [Compound (D)] | Fair (evaluated as “Fair” when the ratio was 60% or more and less than 70%)
